{"source": "paper PMC5218480", "about": "(PLoS ONE, 2017)", "tested_on": "MV-4-11 cells", "test": "Gene expression microarray analysis (Affymetrix PrimeView) and GSEA", "format": "cell-based, human", "parameters": "RFU PODN (11730768_x_at) / Fold change /veh PODN (11730768_x_at) / RFU LINC00158 (11744669_a_at) / Fold change /veh LINC00158 (11744669_a_at) / RFU DUSP10 (11751237_a_at) / Fold change /veh DUSP10 (11751237_a_at) / RFU ID3 (11757404_x_at) / Fold change /veh ID3 (11757404_x_at) / RFU PLEKHG5 (11737974_s_at) / Fold change /veh PLEKHG5 (11737974_s_at) / RFU LRRC4B (11730491_at) / Fold change /veh LRRC4B (11730491_at) / RFU GIMAP4 (11747438_a_at) / Fold change /veh GIMAP4 (11747438_a_at) / RFU KRT8 (11758183_x_at) / Fold change /veh KRT8 (11758183_x_at) / RFU CNN1 (11734310_a_at) / Fold change /veh CNN1 (11734310_a_at) / RFU VPS37D (11726825_at) / Fold change /veh VPS37D (11726825_at) / RFU C10orf10 (11716522_x_at) / Fold change /veh C10orf10 (11716522_x_at) / RFU KIR2DL2 /// KIR2DL4 /// KIR2DL5A /// KIR2DL5B /// KIR2DS1 /// KIR2DS2 /// KIR2DS3 /// KIR2DS4 /// KIR3DL3 /// KIR3DL3 /// KIR3DS1 (11738374_at) / Fold change /veh KIR2DL2 /// KIR2DL4 /// KIR2DL5A /// KIR2DL5B /// KIR2DS1 /// KIR2DS2 /// KIR2DS3 /// KIR2DS4 /// KIR3DL3 /// KIR3DL3 /// KIR3DS1 (11738374_at) / RFU C1QL1 (11718748_at) / Fold change /veh C1QL1 (11718748_at) / RFU TMPRSS4 (11747572_a_at) / Fold change /veh TMPRSS4 (11747572_a_at) / RFU HAMP (11756126_x_at) / Fold change /veh HAMP (11756126_x_at) / RFU RNFT2 (11725882_a_at) / Fold change /veh RNFT2 (11725882_a_at) / RFU NR4A2 (11747474_a_at) / Fold change /veh NR4A2 (11747474_a_at) / RFU ABCC12 (11746883_a_at) / Fold change /veh ABCC12 (11746883_a_at) / RFU TMEM136 (11760407_x_at) / Fold change /veh TMEM136 (11760407_x_at) / RFU CLDN22 /// WWC2 (11732394_at) / Fold change /veh CLDN22 /// WWC2 (11732394_at) / RFU HLA-DPB1 (11760878_x_at) / Fold change /veh HLA-DPB1 (11760878_x_at) / RFU SPINT1 (11716480_a_at) / Fold change /veh SPINT1 (11716480_a_at) / RFU GAP43 (11754022_s_at) / Fold change /veh GAP43 (11754022_s_at) / RFU A4GNT (11735810_at) / Fold change /veh A4GNT (11735810_at) / RFU PRB3 (11715151_x_at) / Fold change /veh PRB3 (11715151_x_at) / RFU TUBB4B (11761932_at) / Fold change /veh TUBB4B (11761932_at) / RFU CAPN14 (11732068_a_at) / Fold change /veh CAPN14 (11732068_a_at) / RFU TMCC2 (11721928_a_at) / Fold change /veh TMCC2 (11721928_a_at) / RFU IRGQ (11745062_a_at) / Fold change /veh IRGQ (11745062_a_at) / RFU FAM174B (11720279_a_at) / Fold change /veh FAM174B (11720279_a_at) / RFU TMPRSS4 (11748680_a_at) / Fold change /veh TMPRSS4 (11748680_a_at) / RFU FAM212B (11763350_a_at) / Fold change /veh FAM212B (11763350_a_at) / RFU PLEKHG5 (11743358_a_at) / Fold change /veh PLEKHG5 (11743358_a_at) / RFU ZSCAN30 (11745921_a_at) / Fold change /veh ZSCAN30 (11745921_a_at) / RFU CMKLR1 (11741424_a_at) / Fold change /veh CMKLR1 (11741424_a_at) / RFU LOC101060620 /// MAPK8IP1 (11723275_at) / Fold change /veh LOC101060620 /// MAPK8IP1 (11723275_at) / RFU SPTSSB (11747773_x_at) / Fold change /veh SPTSSB (11747773_x_at) / RFU PRSS12 (11739890_at) / Fold change /veh PRSS12 (11739890_at) / RFU BIN1 (11741810_x_at) / Fold change /veh BIN1 (11741810_x_at) / RFU WNT11 (11732464_a_at) / Fold change /veh WNT11 (11732464_a_at) / RFU C10orf10 (11716521_a_at) / Fold change /veh C10orf10 (11716521_a_at) / RFU C5orf56 (11738089_at) / Fold change /veh C5orf56 (11738089_at) / RFU CYB561 (11721691_x_at) / Fold change /veh CYB561 (11721691_x_at) / RFU ANKRD19P (11752326_a_at) / Fold change /veh ANKRD19P (11752326_a_at) / RFU OR2T12 /// OR2T33 /// OR2T8 (11738714_s_at) / Fold change /veh OR2T12 /// OR2T33 /// OR2T8 (11738714_s_at) / RFU VCAN (11748164_a_at) / Fold change /veh VCAN (11748164_a_at) / RFU JSRP1 (11732532_at) / Fold change /veh JSRP1 (11732532_at) / RFU KRTAP10-11 (11738290_x_at) / Fold change /veh KRTAP10-11 (11738290_x_at) / RFU MYO3A (11730013_a_at) / Fold change /veh MYO3A (11730013_a_at) / RFU EBF3 (11725865_a_at) / Fold change /veh EBF3 (11725865_a_at) / RFU CAMK2N1 (11719241_x_at) / Fold change /veh CAMK2N1 (11719241_x_at) / RFU C5orf56 (11738088_a_at) / Fold change /veh C5orf56 (11738088_a_at) / RFU OLFML3 (11715873_a_at) / Fold change /veh OLFML3 (11715873_a_at) / RFU LOC100653217 /// NTM (11731650_a_at) / Fold change /veh LOC100653217 /// NTM (11731650_a_at) / RFU MAPK11 (11762145_a_at) / Fold change /veh MAPK11 (11762145_a_at) / RFU FIZ1 (11724087_x_at) / Fold change /veh FIZ1 (11724087_x_at) / RFU OASL (11726364_x_at) / Fold change /veh OASL (11726364_x_at) / RFU SOX15 (11748057_x_at) / Fold change /veh SOX15 (11748057_x_at) / RFU CD79A (11719716_a_at) / Fold change /veh CD79A (11719716_a_at) / RFU HIST1H1D (11736915_at) / Fold change /veh HIST1H1D (11736915_at) / RFU CASKIN2 (11723855_a_at) / Fold change /veh CASKIN2 (11723855_a_at) / RFU LOC730098 (11760151_x_at) / Fold change /veh LOC730098 (11760151_x_at) / RFU OR4N2 (11742367_at) / Fold change /veh OR4N2 (11742367_at) / RFU PRRT2 (11749266_a_at) / Fold change /veh PRRT2 (11749266_a_at) / RFU SNX32 (11753110_a_at) / Fold change /veh SNX32 (11753110_a_at) / RFU CDHR5 (11726645_a_at) / Fold change /veh CDHR5 (11726645_a_at) / RFU RCAN1 (11760418_a_at) / Fold change /veh RCAN1 (11760418_a_at) / RFU FAM167A (11723789_a_at) / Fold change /veh FAM167A (11723789_a_at) / RFU FAM26E (11764081_at) / Fold change /veh FAM26E (11764081_at) / RFU ISYNA1 (11749810_s_at) / Fold change /veh ISYNA1 (11749810_s_at) / RFU ACY1 (11761880_at) / Fold change /veh ACY1 (11761880_at) / RFU 11764098_at / Fold change /veh 11764098_at / RFU SAMD14 (11745864_x_at) / Fold change /veh SAMD14 (11745864_x_at) / RFU NPB (11741838_a_at) / Fold change /veh NPB (11741838_a_at) / RFU TMPRSS6 (11731388_a_at) / Fold change /veh TMPRSS6 (11731388_a_at) / RFU KRTAP10-2 (11738614_at) / Fold change /veh KRTAP10-2 (11738614_at) / RFU ARHGAP8 /// PRR5-ARHGAP8 (11727945_x_at) / Fold change /veh ARHGAP8 /// PRR5-ARHGAP8 (11727945_x_at) / RFU KRTAP5-7 /// NADSYN1 (11734609_at) / Fold change /veh KRTAP5-7 /// NADSYN1 (11734609_at) / RFU RASL12 (11751679_a_at) / Fold change /veh RASL12 (11751679_a_at) / RFU CDKN2B (11736163_a_at) / Fold change /veh CDKN2B (11736163_a_at) / RFU PRF1 (11729649_at) / Fold change /veh PRF1 (11729649_at) / RFU, ZNF638 /// ZNF638-IT1 / Fold change vs veh, ZNF638 /// ZNF638-IT1 / RFU, PANK3 / Fold change vs veh, PANK3 / RFU, SH3YL1 / Fold change vs veh, SH3YL1 / RFU, ZEB2 / Fold change vs veh, ZEB2 / RFU, NRIP1 / Fold change vs veh, NRIP1 / RFU, PTTG1IP / Fold change vs veh, PTTG1IP / RFU, CAPN2 / Fold change vs veh, CAPN2 / RFU, MED14 / Fold change vs veh, MED14 / RFU, SNORA58 / Fold change vs veh, SNORA58 / RFU, C1orf63 / Fold change vs veh, C1orf63 / RFU, LRRFIP1 / Fold change vs veh, LRRFIP1 / RFU, NDUFAF7 / Fold change vs veh, NDUFAF7 / RFU, SLC12A2 / Fold change vs veh, SLC12A2 / RFU, IBTK / Fold change vs veh, IBTK / RFU, ESF1 / Fold change vs veh, ESF1 / Fold change vs veh, TMEM50B / RFU, TAOK1 / Fold change vs veh, TAOK1 / RFU, ACBD3 / Fold change vs veh, ACBD3 / RFU, TMA16 / Fold change vs veh, TMA16 / RFU, RWDD3 / Fold change vs veh, RWDD3 / RFU, BCAT1 / Fold change vs veh, BCAT1 / RFU, EDEM3 / Fold change vs veh, EDEM3 / RFU, TMEM33 / Fold change vs veh, TMEM33 / RFU, WDR75 / Fold change vs veh, WDR75 / RFU, AHCTF1 / Fold change vs veh, AHCTF1 / RFU, TFRC / Fold change vs veh, TFRC / RFU, ZDHHC17 / Fold change vs veh, ZDHHC17 / RFU, NOM1 / Fold change vs veh, NOM1 / RFU, ARL8B / Fold change vs veh, ARL8B / RFU, ZBTB11 / Fold change vs veh, ZBTB11 / RFU, TAMM41 / Fold change vs veh, TAMM41 / RFU, KIAA1704 /// LOC100996395 / Fold change vs veh, KIAA1704 /// LOC100996395 / RFU, ING1 / Fold change vs veh, ING1 / RFU, TRMT61B / Fold change vs veh, TRMT61B / RFU, FUBP3 / Fold change vs veh, FUBP3 / RFU, TP53 / Fold change vs veh, TP53 / RFU, TNKS2 / Fold change vs veh, TNKS2 / RFU, ZFP14 / Fold change vs veh, ZFP14 / RFU, ACTR2 / Fold change vs veh, ACTR2 / RFU, PPP3R1 / Fold change vs veh, PPP3R1 / RFU, PIK3R1 / Fold change vs veh, PIK3R1 / RFU, HNRNPA1 / Fold change vs veh, HNRNPA1 / RFU, RNF170 / Fold change vs veh, RNF170 / RFU, ZNF28 / Fold change vs veh, ZNF28 / RFU, RNGTT / Fold change vs veh, RNGTT / RFU, OGT / Fold change vs veh, OGT / RFU, BRD1 / Fold change vs veh, BRD1 / RFU, MARS / Fold change vs veh, MARS / RFU, ZNF655 / Fold change vs veh, ZNF655 / RFU, FAHD1 / Fold change vs veh, FAHD1 / RFU, BDP1 / Fold change vs veh, BDP1 / RFU, LRRCC1 / Fold change vs veh, LRRCC1 / RFU, ARID1A / Fold change vs veh, ARID1A / RFU, ZNF146 / Fold change vs veh, ZNF146 / RFU, ZNF330 / Fold change vs veh, ZNF330 / RFU, GPN3 / Fold change vs veh, GPN3 / RFU, C9orf123 / Fold change vs veh, C9orf123 / RFU, N4BP2L2 / Fold change vs veh, N4BP2L2 / RFU, ARFIP1 / Fold change vs veh, ARFIP1 / RFU, FAM179B / Fold change vs veh, FAM179B / RFU, BCL10 / Fold change vs veh, BCL10 / RFU, UHRF1BP1L / Fold change vs veh, UHRF1BP1L / RFU, BET1 / Fold change vs veh, BET1 / RFU, CNOT2 / Fold change vs veh, CNOT2 / RFU, ZNF268 / Fold change vs veh, ZNF268 / Fold change vs veh, ZNF507 / RFU, DGCR2 / Fold change vs veh, DGCR2 / RFU, WDSUB1 / Fold change vs veh, WDSUB1 / Fold change vs veh, HSP90B1 /// MIR3652 / RFU, ADSS / Fold change vs veh, ADSS / RFU, GK / Fold change vs veh, GK / RFU, ZNF148 / Fold change vs veh, ZNF148 / RFU, TAF9 / Fold change vs veh, TAF9 / RFU, SLC1A5 / Fold change vs veh, SLC1A5 / RFU, SLMO2 / Fold change vs veh, SLMO2 / RFU, ABCC4 / Fold change vs veh, ABCC4 / RFU, LOC101060439 /// RAP1B / Fold change vs veh, LOC101060439 /// RAP1B / RFU, RFX7 / Fold change vs veh, RFX7 / RFU, GTPBP10 / Fold change vs veh, GTPBP10 / RFU, CNEP1R1 / Fold change vs veh, CNEP1R1 / RFU, BIVM-ERCC5 /// ERCC5 / Fold change vs veh, BIVM-ERCC5 /// ERCC5 / RFU, ILF3 / Fold change vs veh, ILF3 / RFU 11762660_at / Fold change /veh 11762660_at / RFU VCAN (11757783_s_at) / Fold change /veh VCAN (11757783_s_at) / RFU DDX43 (11728927_at) / Fold change /veh DDX43 (11728927_at) / RFU KRT8 (11758188_x_at) / Fold change /veh KRT8 (11758188_x_at) / RFU NKD1 (11759106_at) / Fold change /veh NKD1 (11759106_at) / RFU SRD5A1 (11742802_a_at) / Fold change /veh SRD5A1 (11742802_a_at) / RFU TPSAB1 /// TPSB2 (11721975_s_at) / Fold change /veh TPSAB1 /// TPSB2 (11721975_s_at) / RFU GSTM3 (11746129_a_at) / Fold change /veh GSTM3 (11746129_a_at) / RFU IL23R (11737362_x_at) / Fold change /veh IL23R (11737362_x_at) / RFU TMEM51 (11727254_a_at) / Fold change /veh TMEM51 (11727254_a_at) / RFU PIWIL2 (11732686_x_at) / Fold change /veh PIWIL2 (11732686_x_at) / RFU ORM1 (11744905_x_at) / Fold change /veh ORM1 (11744905_x_at) / RFU CCDC152 (11743942_at) / Fold change /veh CCDC152 (11743942_at) / RFU ECM1 (11717891_a_at) / Fold change /veh ECM1 (11717891_a_at) / RFU IL23R (11748794_a_at) / Fold change /veh IL23R (11748794_a_at) / RFU TNFAIP8L3 (11732012_x_at) / Fold change /veh TNFAIP8L3 (11732012_x_at) / RFU MBOAT4 (11741988_at) / Fold change /veh MBOAT4 (11741988_at) / RFU 11764193_at / Fold change /veh 11764193_at / RFU TMEM53 (11763286_at) / Fold change /veh TMEM53 (11763286_at) / RFU MAGEB2 (11727129_at) / Fold change /veh MAGEB2 (11727129_at) / RFU TMEM200A (11744735_a_at) / Fold change /veh TMEM200A (11744735_a_at) / RFU CCDC152 (11751479_a_at) / Fold change /veh CCDC152 (11751479_a_at) / RFU FAM211A (11726209_a_at) / Fold change /veh FAM211A (11726209_a_at) / RFU RGS16 (11746705_a_at) / Fold change /veh RGS16 (11746705_a_at) / RFU VCAN (11755009_s_at) / Fold change /veh VCAN (11755009_s_at) / RFU RHOB (11743442_s_at) / Fold change /veh RHOB (11743442_s_at) / RFU RGS16 (11720943_a_at) / Fold change /veh RGS16 (11720943_a_at) / RFU RGS16 (11720944_at) / Fold change /veh RGS16 (11720944_at) / RFU, VPS4B / Fold change vs veh, VPS4B / RFU, CREB1 / Fold change vs veh, CREB1 / RFU, DNAJC13 / Fold change vs veh, DNAJC13 / RFU, GNAQ / Fold change vs veh, GNAQ / RFU, CDK5R1 / Fold change vs veh, CDK5R1 / RFU, ZRANB3 / Fold change vs veh, ZRANB3 / RFU, CUL4A / Fold change vs veh, CUL4A / RFU, CCNY / Fold change vs veh, CCNY / RFU, UFL1 / Fold change vs veh, UFL1 / RFU, COG3 / Fold change vs veh, COG3 / RFU, DIAPH2 / Fold change vs veh, DIAPH2 / RFU, SKA2 / Fold change vs veh, SKA2 / RFU, AFF3 / Fold change vs veh, AFF3 / RFU, LMF1 / Fold change vs veh, LMF1 / RFU, IPO11 / Fold change vs veh, IPO11 / RFU, DFFB / Fold change vs veh, DFFB / RFU, FOXP1 / Fold change vs veh, FOXP1 / RFU, CARD8 / Fold change vs veh, CARD8 / RFU, STRN3 / Fold change vs veh, STRN3 / RFU, ADK / Fold change vs veh, ADK / RFU, RASSF2 / Fold change vs veh, RASSF2 / RFU, WIPF1 / Fold change vs veh, WIPF1 / RFU, LARP1B / Fold change vs veh, LARP1B / RFU, RASA1 / Fold change vs veh, RASA1 / RFU, RB1 / Fold change vs veh, RB1 / RFU, PPFIA1 / Fold change vs veh, PPFIA1 / RFU, MAT2A / Fold change vs veh, MAT2A / RFU, CCT5 / Fold change vs veh, CCT5 / RFU, WDR92 / Fold change vs veh, WDR92 / RFU, CUX1 / Fold change vs veh, CUX1 / RFU, TTC7A / Fold change vs veh, TTC7A / RFU, TMEM135 / Fold change vs veh, TMEM135 / RFU, DEPTOR / Fold change vs veh, DEPTOR / RFU, CPM / Fold change vs veh, CPM / RFU, DNAJB6 / Fold change vs veh, DNAJB6 / RFU, CACNA2D3 / Fold change vs veh, CACNA2D3 / RFU, DTX4 / Fold change vs veh, DTX4 / RFU, TFCP2 / Fold change vs veh, TFCP2 / RFU, GMCL1 /// GMCL1P1 / Fold change vs veh, GMCL1 /// GMCL1P1 / RFU, AEBP2 / Fold change vs veh, AEBP2 / RFU, SNHG1 /// SNORD22 /// SNORD25 /// SNORD26 /// SNORD27 /// SNORD28 /// SNORD29 /// SNORD31 / Fold change vs veh, SNHG1 /// SNORD22 /// SNORD25 /// SNORD26 /// SNORD27 /// SNORD28 /// SNORD29 /// SNORD31 / Fold change (Aza/veh), C12orf56 (ProbeSet 11735607_a_at) / Fold change (ACY-1035/veh), C12orf56 (ProbeSet 11735607_a_at) / Fold change (Aza/veh), FGFR1OP (ProbeSet 11751329_s_at) / Fold change (ACY-1035/veh), FGFR1OP (ProbeSet 11751329_s_at) / Fold change (Aza/veh), VPS36 (ProbeSet 11739960_a_at) / Fold change (ACY-1035/veh), VPS36 (ProbeSet 11739960_a_at) / RFU SYPL1 (11715823_x_at) / Fold change /veh SYPL1 (11715823_x_at) / RFU IGFBP7 (11715501_s_at) / Fold change /veh IGFBP7 (11715501_s_at) / RFU REEP3 (11722064_at) / Fold change /veh REEP3 (11722064_at) / RFU IGLL1 (11728026_x_at) / Fold change /veh IGLL1 (11728026_x_at): dose or concentration left out as unconfirmed", "settings": "ProbeSet 11722022_s_at; LIST D", "data": [{"smiles": "Nc1ccc(-c2cccs2)cc1NC(=O)c1ccc2c(c1)cc(C1CC1)n2CCN1CCOCC1", "note": "[ACY-1035]", "values": [{"measurement": "RFU, CDK5R1", "value": 47.94, "unit": "RFU"}]}]}
